Data on seven molecules can be found in article PMC11123921, “Synthesis and Evaluation of 5-(Heteroarylmethylene)hydantoins as Glycogen Synthase Kinase-3β Inhibitors” (Pharmaceuticals, 2024).

SMILES strings stand for the structures. Where a name gives a salt, the structure may show the parent alone.

Chain of human matrix metalloproteinase-12 (P39900 106-470): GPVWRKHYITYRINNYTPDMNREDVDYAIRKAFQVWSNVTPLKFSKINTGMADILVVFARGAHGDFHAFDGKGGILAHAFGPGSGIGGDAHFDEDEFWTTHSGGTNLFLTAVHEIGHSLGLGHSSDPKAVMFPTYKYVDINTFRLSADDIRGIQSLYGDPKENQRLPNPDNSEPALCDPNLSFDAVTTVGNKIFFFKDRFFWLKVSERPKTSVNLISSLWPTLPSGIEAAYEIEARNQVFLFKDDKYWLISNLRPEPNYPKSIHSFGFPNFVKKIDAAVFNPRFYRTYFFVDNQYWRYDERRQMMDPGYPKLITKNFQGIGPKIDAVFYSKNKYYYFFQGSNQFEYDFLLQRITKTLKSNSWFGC

The target of the first series is human matrix metalloproteinase-12 (Homo sapiens, UniProt P39900). The series is described as follows: Matrix metalloproteinase-12 fluorogenic substrate assay. The format is biochemical. To be noted: 25 μM compound; read-out: MMP-12 % Activity @ 25 μM. As to the method:
(§1) 5-(Heteroarylmethylene)hydantoins were evaluated as inhibitors for MMP-12 at fixed concentrations of 200 and 25 μM (Table 1). At 200 μM of 20–24, the activity of MMP-12 was ≤50% the activity of positive control; for compounds 21, 24, and 25 at 25 μM, the activity of MMP12 was 69–74% while the activity for the others was >80%. […] A select subset of the 5-(heteroarylmethylene)hydantoins were evaluated as inhibitors of human carbonic anhydrase II (hCAII) at 200 μM (Table 1). […] Finally, this same subset of 5-(heteroarylmethylene)hydantoins were evaluated as inhibitors of isolated S. aureus pyruvate carboxylase (SaPC) in a fixed-time assay (Table 1). No inhibitory activity was observed up to 1000 μM.
Assays for human matrix metalloproteinase-12 activity were performed in a 96-well plate format for a total reaction volume of 100 μL, in an assay modified from Day and Cohen. All assay reagents were prepared and maintained at 22 °C until warmed to 37 °C. The omniMMP fluorogenic substrate and MMP-12 enzyme were prepared in assay buffer (50 mM HEPES, 10 mM CaCl2, 0.05% Brij-35, pH of 7.52), and small molecule effectors were prepared as a solution in 50% DMSO, 50% assay buffer. The final concentration of enzyme in the 100 μL enzymatic reaction was 0.0083 U/μL. A known inhibitor, N-[(4’-bromo [1,1’-biphenyl]-4-yl)sulfonyl]-L-valine (PD166793), was included where noted at a final concentration of 100 μM. OmniMMP fluorogenic substrate was added to the 100 μL enzymatic reaction at a final concentration of 4 μM. For all experiments, 30 μL of enzyme stock solution was added to each well in a 96-well, flat-bottom, black polystyrene microplate (SantaCruz Biotechnology, Dallas, TX, USA), followed by the addition of 10 μL of the effectors (50% assay buffer, 50% DMSO for the uninhibited reaction, PD166793 for the inhibition). The 96-well plate was then incubated in a plate reader at 37 °C for 30 min; concurrently, the substrate solution was also warmed to 37 °C for 30 min. The enzymatic reaction was initiated by adding 60 μL of the omniMMP fluorogenic substrate solution. The change in fluorescence was then monitored for 30 min with excitation and emission wavelengths at 320 and 400 nm, respectively, every 46 s for a total of 40 measurements.
Turning to `O=C1NC(=O)/C(=C/c2ccc(Br)cn2)N1` [Compound 26, (Z)-5-[(5′-Bromo-2-pyridinyl)methylene]-2,4-imidazolidinedione], the activity at 25 µM is 98.6%.

For `O=C1NC(=O)/C(=C/c2ccc3ncccc3c2)N1` [Compound 28, (Z)-5-[(6′-Quinolinyl)methylene]-2,4-imidazolidinedione], the activity at 25 µM turned out to be 81.8%.

In the case of `Cc1cccnc1/C=C1\NC(=O)NC1=O` [Compound 20, (Z)-5-[(3′-Methyl-2-pyridinyl)methylene]-2,4-imidazolidinedione], the activity at 25 µM came to 108%.

For `O=C1NC(=O)/C(=C/c2csc3ccccc23)N1` [Compound 29, (Z)-5-[(3-Benzo[b]thiophenyl)methylene]-2,4-imidazolidinedione], the activity at 25 µM was 98.1%.

As to `O=C1NC(=O)/C(=C/c2ncccc2Cl)N1` [Compound 24, (Z)-5-[(3′-Chloro-2-pyridinyl)methylene]-2,4-imidazolidinedione-HCl], the activity at 25 µM worked out at 69.1%.

Turning to `O=C1NC(=O)/C(=C/c2cc(Cl)ccn2)N1` [Compound 25, (Z)-5-[(4′-Chloro-2-pyridinyl)methylene]-2,4-imidazolidinedione-HCl], the activity at 25 µM worked out at 73.9%.

With `COc1cccc(/C=C2\NC(=O)NC2=O)n1` [Compound 15, (Z)-5-[(6′-Methoxy-2-pyridinyl)methylene]-2,4-imidazolidinedione], the activity at 25 µM worked out at 87.5%.

The same series, now with this note: 200 μM compound; read-out: MMP-12 % Activity @ 200 μM.
`O=C1NC(=O)/C(=C/c2ccc(Br)cn2)N1` [Compound 26, (Z)-5-[(5′-Bromo-2-pyridinyl)methylene]-2,4-imidazolidinedione]: the activity at 200 µM is 72.9%.

In the case of `O=C1NC(=O)/C(=C/c2ccc3ncccc3c2)N1` [Compound 28, (Z)-5-[(6′-Quinolinyl)methylene]-2,4-imidazolidinedione], the activity at 200 µM turned out to be 61.6%.

With `Cc1cccnc1/C=C1\NC(=O)NC1=O` [Compound 20, (Z)-5-[(3′-Methyl-2-pyridinyl)methylene]-2,4-imidazolidinedione], the activity at 200 µM is 39.6%.

With `O=C1NC(=O)/C(=C/c2csc3ccccc23)N1` [Compound 29, (Z)-5-[(3-Benzo[b]thiophenyl)methylene]-2,4-imidazolidinedione], the activity at 200 µM amounted to 88%.

Consider `O=C1NC(=O)/C(=C/c2ncccc2Cl)N1` [Compound 24, (Z)-5-[(3′-Chloro-2-pyridinyl)methylene]-2,4-imidazolidinedione-HCl], for which the activity at 200 µM turned out to be 39.2%.

Turning to `O=C1NC(=O)/C(=C/c2cc(Cl)ccn2)N1` [Compound 25, (Z)-5-[(4′-Chloro-2-pyridinyl)methylene]-2,4-imidazolidinedione-HCl], the activity at 200 µM amounted to 50%.

With `COc1cccc(/C=C2\NC(=O)NC2=O)n1` [Compound 15, (Z)-5-[(6′-Methoxy-2-pyridinyl)methylene]-2,4-imidazolidinedione], the activity at 200 µM is 74%.

In a further series the target is T1, Staphylococcus aureus pyruvate carboxylase (SaPC) (Staphylococcus aureus, UniProt A0A0H3JRU9).
T1 sequence (A0A0H3JRU9 1-1150): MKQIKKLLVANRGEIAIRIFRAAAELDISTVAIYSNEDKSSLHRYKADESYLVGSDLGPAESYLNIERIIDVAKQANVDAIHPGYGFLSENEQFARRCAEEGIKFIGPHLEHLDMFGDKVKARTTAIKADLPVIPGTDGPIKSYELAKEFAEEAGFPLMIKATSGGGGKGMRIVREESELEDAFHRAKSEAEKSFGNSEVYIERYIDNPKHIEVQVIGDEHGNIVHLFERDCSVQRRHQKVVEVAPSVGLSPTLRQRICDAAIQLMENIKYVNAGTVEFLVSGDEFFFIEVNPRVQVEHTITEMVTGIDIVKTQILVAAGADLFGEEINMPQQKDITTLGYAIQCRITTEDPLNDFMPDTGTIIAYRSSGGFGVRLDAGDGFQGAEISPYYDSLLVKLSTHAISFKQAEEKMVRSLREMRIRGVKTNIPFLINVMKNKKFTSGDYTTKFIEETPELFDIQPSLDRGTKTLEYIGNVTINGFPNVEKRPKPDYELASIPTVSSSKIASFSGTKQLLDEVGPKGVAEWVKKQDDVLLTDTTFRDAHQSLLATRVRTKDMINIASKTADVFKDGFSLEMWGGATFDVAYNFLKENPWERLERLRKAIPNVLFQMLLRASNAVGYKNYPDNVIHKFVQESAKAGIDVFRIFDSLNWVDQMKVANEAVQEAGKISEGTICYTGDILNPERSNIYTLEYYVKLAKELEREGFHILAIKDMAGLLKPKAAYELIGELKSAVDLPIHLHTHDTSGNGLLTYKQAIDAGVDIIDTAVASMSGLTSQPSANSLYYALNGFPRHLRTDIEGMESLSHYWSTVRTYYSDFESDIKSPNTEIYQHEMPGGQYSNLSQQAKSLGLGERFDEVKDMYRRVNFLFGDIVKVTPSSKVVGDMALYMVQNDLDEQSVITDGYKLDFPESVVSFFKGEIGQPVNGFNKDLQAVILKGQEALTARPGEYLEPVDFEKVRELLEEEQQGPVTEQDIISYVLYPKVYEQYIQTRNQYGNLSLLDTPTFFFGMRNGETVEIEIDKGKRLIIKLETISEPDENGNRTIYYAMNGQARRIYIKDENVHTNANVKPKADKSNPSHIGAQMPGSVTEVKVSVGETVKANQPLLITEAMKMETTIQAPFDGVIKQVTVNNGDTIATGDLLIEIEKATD
The series is described as follows: biochemical. Conditions: isolated SaPC.
Usually IC50 stands for the concentration that gives 50% inhibition. Low readings indicate greater potency, high ones weaker potency. `O=C1NC(=O)/C(=C/c2csc3ccccc23)N1` [Compound 29, (Z)-5-[(3-Benzo[b]thiophenyl)methylene]-2,4-imidazolidinedione]: the IC50 was > 1000 µM.

As for `O=C1NC(=O)/C(=C/c2ncccc2Cl)N1` [Compound 24, (Z)-5-[(3′-Chloro-2-pyridinyl)methylene]-2,4-imidazolidinedione-HCl], the IC50 was > 1000 µM.

As to `O=C1NC(=O)/C(=C/c2cc(Cl)ccn2)N1` [Compound 25, (Z)-5-[(4′-Chloro-2-pyridinyl)methylene]-2,4-imidazolidinedione-HCl], the IC50 was > 1000 µM.

Regarding `COc1cccc(/C=C2\NC(=O)NC2=O)n1` [Compound 15, (Z)-5-[(6′-Methoxy-2-pyridinyl)methylene]-2,4-imidazolidinedione], the IC50 is > 1000 µM.

The next series deals with GSK-3β (Homo sapiens, UniProt P49841). The series is described as follows: GSK-3β kinase HotSpot assay (Reaction Biology). The format is biochemical. Conditions: 25 μM compound, 10 μM ATP, duplicate, average; remaining kinase activity vs vehicle.
Chain of GSK-3β (P49841 whole entry): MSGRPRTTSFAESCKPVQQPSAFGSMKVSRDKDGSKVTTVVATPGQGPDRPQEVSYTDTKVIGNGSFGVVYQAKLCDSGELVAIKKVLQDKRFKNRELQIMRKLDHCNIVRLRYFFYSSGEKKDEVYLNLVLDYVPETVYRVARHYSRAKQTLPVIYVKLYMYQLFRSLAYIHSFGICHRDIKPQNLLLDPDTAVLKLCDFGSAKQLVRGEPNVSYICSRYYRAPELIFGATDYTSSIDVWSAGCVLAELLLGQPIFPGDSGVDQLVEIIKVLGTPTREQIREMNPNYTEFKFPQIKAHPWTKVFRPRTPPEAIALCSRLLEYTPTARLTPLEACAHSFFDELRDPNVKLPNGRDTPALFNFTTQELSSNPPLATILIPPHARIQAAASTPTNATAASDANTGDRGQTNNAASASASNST
Regarding `O=C1NC(=O)/C(=C/c2ccc(Br)cn2)N1` [Compound 26, (Z)-5-[(5′-Bromo-2-pyridinyl)methylene]-2,4-imidazolidinedione], the activity at 25 µM was found to be 35.3%.

`O=C1NC(=O)/C(=C/c2ccc3ncccc3c2)N1` [Compound 28, (Z)-5-[(6′-Quinolinyl)methylene]-2,4-imidazolidinedione]: the activity at 25 µM worked out at 22.5%.

For the molecule `Cc1cccnc1/C=C1\NC(=O)NC1=O` [Compound 20, (Z)-5-[(3′-Methyl-2-pyridinyl)methylene]-2,4-imidazolidinedione], the activity at 25 µM was determined as 31.6%.

`O=C1NC(=O)/C(=C/c2csc3ccccc23)N1` [Compound 29, (Z)-5-[(3-Benzo[b]thiophenyl)methylene]-2,4-imidazolidinedione]: the activity at 25 µM worked out at 27.9%.

Consider `O=C1NC(=O)/C(=C/c2ncccc2Cl)N1` [Compound 24, (Z)-5-[(3′-Chloro-2-pyridinyl)methylene]-2,4-imidazolidinedione-HCl], for which the activity at 25 µM came out at 44.6%.

In the case of `O=C1NC(=O)/C(=C/c2cc(Cl)ccn2)N1` [Compound 25, (Z)-5-[(4′-Chloro-2-pyridinyl)methylene]-2,4-imidazolidinedione-HCl], the activity at 25 µM turned out to be 15.4%.

With `COc1cccc(/C=C2\NC(=O)NC2=O)n1` [Compound 15, (Z)-5-[(6′-Methoxy-2-pyridinyl)methylene]-2,4-imidazolidinedione], the activity at 25 µM is 17.3%.

Staying with this series, now noted: 10-point, triplicate, 10 μM ATP, average ± SD.
As to `O=C1NC(=O)/C(=C/c2ccc3ncccc3c2)N1` [Compound 28, (Z)-5-[(6′-Quinolinyl)methylene]-2,4-imidazolidinedione], half-maximal inhibition (IC50) required 7.82 ± 0.12 µM.

`O=C1NC(=O)/C(=C/c2cc(Cl)ccn2)N1` [Compound 25, (Z)-5-[(4′-Chloro-2-pyridinyl)methylene]-2,4-imidazolidinedione-HCl] had a 50% inhibitory concentration (IC50) of 2.14 ± 0.18 µM.

Consider `COc1cccc(/C=C2\NC(=O)NC2=O)n1` [Compound 15, (Z)-5-[(6′-Methoxy-2-pyridinyl)methylene]-2,4-imidazolidinedione], for which the 50% inhibitory concentration (IC50) is 4.06 ± 0.3 µM.

A further series concerns the target human carbonic anhydrase II (hCAII) (Homo sapiens, UniProt P00918). Description: Human carbonic anhydrase II p-nitrophenyl acetate assay. The format is biochemical. Conditions: 200 μM compound. As for the experimental part: as §1
Assays for human carbonic anhydrase II activity were performed in a 96-well plate format for a total reaction volume of 100 μL, in an assay modified from Day and Cohen. All assay reagents and solutions were prepared separately and maintained at 22 °C until warmed to 30 °C. All substrates, effectors, and enzyme were freshly dissolved and diluted in assay buffer containing 50 mM Tris (pH 8.0). The final concentration of the human carbonic anhydrase II enzyme was 200 nM. Where noted, acetazolamide was included at a final concentration of 10 μM. The substrate, p-nitrophenyl acetate, was added at a final concentration of 504 μM. For all experiments, 20 μL of enzyme stock solution was added to each well in a 96-well, flat-bottom, polystyrene microplate (Santa Cruz Biotechnology, Dallas, TX, USA), followed by the addition of 10 μL of the effectors (assay buffer for the uninhibited reaction, acetazolamide for the inhibition). The 96-well plate was then incubated in a plate reader at 30 °C for 10 min; concurrently, the substrate solution was also warmed to 30 °C for 10 min. The enzymatic reaction was initiated by adding 70 μL of the substrate solution (p-nitrophenyl acetate). The absorbance values were then measured at 405 nm every 30 s over a period of 20 min for a total of 40 measurements.
With `O=C1NC(=O)/C(=C/c2csc3ccccc23)N1` [Compound 29, (Z)-5-[(3-Benzo[b]thiophenyl)methylene]-2,4-imidazolidinedione], the activity at 200 µM is 63%.

For the molecule `O=C1NC(=O)/C(=C/c2ncccc2Cl)N1` [Compound 24, (Z)-5-[(3′-Chloro-2-pyridinyl)methylene]-2,4-imidazolidinedione-HCl], the activity at 200 µM was 91.8 ± 14.7%.

For the molecule `O=C1NC(=O)/C(=C/c2cc(Cl)ccn2)N1` [Compound 25, (Z)-5-[(4′-Chloro-2-pyridinyl)methylene]-2,4-imidazolidinedione-HCl], the activity at 200 µM is 57 ± 16.4%.

On to `COc1cccc(/C=C2\NC(=O)NC2=O)n1` [Compound 15, (Z)-5-[(6′-Methoxy-2-pyridinyl)methylene]-2,4-imidazolidinedione], for which the activity at 200 µM was 82.1 ± 11%.

Staying with this series, now noted: 200 μM compound; 200 µM.
For `O=C1NC(=O)/C(=C/c2csc3ccccc23)N1` [Compound 29, (Z)-5-[(3-Benzo[b]thiophenyl)methylene]-2,4-imidazolidinedione], the “hCAII % Activity @ 200 μM” value came out at 62.7 ± 9.8%.

Tested on in a further series: not given
Assay: not given
Details: not given
Usually melting point stands for the temperature of the solid-liquid transition. `O=C1NC(=O)/C(=C/c2ccc(Br)cn2)N1` [Compound 26, (Z)-5-[(5′-Bromo-2-pyridinyl)methylene]-2,4-imidazolidinedione]: the melting point was > 255 °C.

For the molecule `O=C1NC(=O)/C(=C/c2ccc3ncccc3c2)N1` [Compound 28, (Z)-5-[(6′-Quinolinyl)methylene]-2,4-imidazolidinedione], the melting point is > 250 °C.

Molecule `Cc1cccnc1/C=C1\NC(=O)NC1=O` [Compound 20, (Z)-5-[(3′-Methyl-2-pyridinyl)methylene]-2,4-imidazolidinedione] gave a melting point of 245 to 248 °C.

In the case of `O=C1NC(=O)/C(=C/c2csc3ccccc23)N1` [Compound 29, (Z)-5-[(3-Benzo[b]thiophenyl)methylene]-2,4-imidazolidinedione], the melting point was > 250 °C.

With `COc1cccc(/C=C2\NC(=O)NC2=O)n1` [Compound 15, (Z)-5-[(6′-Methoxy-2-pyridinyl)methylene]-2,4-imidazolidinedione], the melting point is 249 to 251 °C.
